Assay results: patent publication US7998978B2 (Pfizer Inc., priority 2006, dated 2011)

Target: T1, JNK1α1 (Homo sapiens, UniProt P45983)
T1 construct: catalytic domain containing amino acids 1-364 and N-terminal hexahistidine tag; hexahistidine (His6) (N); made in house; host or cells: E. coli BL21 (DE3)
Experiment: Coupled spectrophotometric (PK/LDH) JNK1α1 assay: % inhibition and Ki determination
Assay type: biochemical
Conditions: for inhibition at 10 µM / inhibition at 1 µM: read-out: % Inhibition JNK-1; for Ki: JNK-1
In short: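 Initial rates were taken from the absorbance decrease at 340 nm at 30° C. Ki was fitted with a tight-binding model over 11 concentrations (top 100 μM); single-point inhibition was tested at 1 or 10 μM.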

T1 sequence (P45983 1-364): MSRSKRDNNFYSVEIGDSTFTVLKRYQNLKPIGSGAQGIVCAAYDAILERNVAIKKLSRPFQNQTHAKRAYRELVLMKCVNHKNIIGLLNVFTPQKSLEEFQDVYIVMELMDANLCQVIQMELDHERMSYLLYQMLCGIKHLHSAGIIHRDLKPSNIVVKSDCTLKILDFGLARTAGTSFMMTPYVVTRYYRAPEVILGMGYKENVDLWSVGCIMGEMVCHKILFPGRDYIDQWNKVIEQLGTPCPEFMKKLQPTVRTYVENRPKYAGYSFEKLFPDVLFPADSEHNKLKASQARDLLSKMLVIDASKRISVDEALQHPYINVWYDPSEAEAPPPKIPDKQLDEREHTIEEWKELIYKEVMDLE

O=C(NCC1CN(C2CCC2)C(=O)CO1)c1cccc2cnc(N[C@H]3CC[C@H](O)CC3)nc12 (stereo partly drawn) [Example 526, N-[(4-cyclobutyl-5-oxomorpholin-2-yl)methyl]-2-[(trans-4-hydroxycyclohexyl)amino]quinazoline-8-carboxamide]
inhibition at 10 µM: 41%

O=C(NCCCn1cccn1)c1ccc2cnc(N[C@H]3CC[C@H](O)CC3)nc2c1 [Example 339, 2-[(trans-4-hydroxycyclohexyl)amino]-N-[3-(1H-pyrazol-1-yl)propyl]quinazolin-7-carboxamide]
Ki: 801 nM

O=C(N[C@@H]1COC[C@H]1O)c1ccc2cnc(NC3CCC3)nc2c1 [Example 433, 2-(cyclobutylamino)-N-[(3R,4S)-4-hydroxytetrahydrofuran-3-yl]quinazoline-7-carboxamide]
inhibition at 1 µM: 24%

O[C@H]1CC[C@H](Nc2ncc3cccc(O[C@H]4CCCN(Cc5ccccn5)C4)c3n2)CC1 [Example 240, trans-4-[(8-{[1-(pyridin-2-ylmethyl)piperidin-3-yl]oxy}quinazolin-2-yl)amino]cyclohexanol]
Ki: 79 nM

CC1(CNC(=O)c2cccc3cnc(N[C@H]4CC[C@H](O)CC4)nc23)COC1 [Example 453]
Ki: 170 nM

CN1CCC(Oc2cccc3cnc(N[C@H]4CC[C@H](O)CC4)nc23)CC1 [Example 254, trans-4-({8-[(1-methylpiperidin-4-yl)oxy]quinazolin-2-yl}amino)cyclohexanol]
inhibition at 1 µM: 17%

CC(C)[C@@H](CO)NC(=O)c1ccc2cnc(N[C@H]3CC[C@H](O)CC3)nc2c1 [Example 382, 2-[(trans-4-hydroxycyclohexyl)amino]-N-[(1S)-1-(hydroxymethyl)-2-methylpropyl]quinazoline-7-carboxamide]
Ki: 195 nM

CC(C)NC(=O)c1ccc2cnc(N[C@H]3CC[C@H](O)CC3)nc2c1 [Example 64, 2-[(trans-4-hydroxycyclohexyl)amino]-N-isopropylquinazoline-7-carboxamide]
Ki: 456 nM

CC(C)Nc1ncc2ccc(C(=O)NCCO)cc2n1 [Example 431, N-(2-hydroxyethyl)-2-(isopropylamino)quinazoline-7-carboxamide]
inhibition at 1 µM: 15%

CC(C)(CO)NC(=O)c1cccc2cnc(N[C@H]3CC[C@H](NS(C)(=O)=O)CC3)nc12 [Example 132, N-(2-hydroxy-1,1-dimethylethyl)-2-({trans-4-[(methylsulfonyl)amino]cyclohexyl}amino)quinazoline-8-carboxamide]
Ki: 78 nM

O=C(N[C@@H]1CCC[C@H]1O)c1cccc2cnc(N[C@H]3CC[C@H](O)CC3)nc12 (relative stereo) [Example 136, 2-[(trans-4-hydroxycyclohexyl)amino]-N-[(trans)-2-hydroxycyclopentyl]quinazoline-8-carboxamide]
Ki: 257 nM

O=C(Nc1ccnn1Cc1ccccc1)c1cccc2cnc(N[C@H]3CC[C@H](O)CC3)nc12 [Example 311, N-(1-benzyl-1H-pyrazol-5-yl)-2-[(trans-4-hydroxycyclohexyl)amino]quinazoline-8-carboxamide]
inhibition at 10 µM: 36%

O=C(NCc1ccc[nH]c1=O)c1cccc2cnc(N[C@H]3CC[C@H](O)CC3)nc12 [Example 477, 2-[(trans-4-hydroxycyclohexyl)amino]-N-[(2-oxo-1,2-dihydropyridin-3-yl)methyl]quinazoline-8-carboxamide]
inhibition at 1 µM: 14%

CN(C)C(=O)CCC(=O)Nc1cc2cc(-c3cn[nH]c3)ccc2cn1 [Example 40, N,N-dimethyl-N′-[6-(1H-pyrazol-4-yl)isoquinolin-3-yl]succinamide]
Ki: 8 nM

Cc1cc(NC(=O)c2cccc3cnc(N[C@H]4CC[C@H](O)CC4)nc23)n(C(C)C)n1 [Example 312, 2-[(trans-4-hydroxycyclohexyl)amino]-N-(1-isopropyl-3-methyl-1H-pyrazol-5-yl)quinazoline-8-carboxamide]
inhibition at 10 µM: 76%

O=C(NC1(CO)CCCC1)c1ccc2cnc(N[C@H]3CC[C@H](O)CC3)nc2c1 [Example 400, 2-[(trans-4-hydroxycyclohexyl)amino]-N-[1-(hydroxymethyl)cyclopentyl]quinazoline-7-carboxamide]
Ki: 478 nM

O=C(Nc1cccnc1N1CCOCC1)c1cccc2cnc(N[C@H]3CC[C@H](O)CC3)nc12 [Example 324, 2-[(trans-4-hydroxycyclohexyl)amino]-N-(2-morpholin-4-ylpyridin-3-yl)quinazoline-8-carboxamide]
inhibition at 10 µM: 26%

CCCNC(=O)c1cccc2cnc(N[C@H]3CC[C@H](O)CC3)nc12 [Example 461, 2-[(trans-4-hydroxycyclohexyl)amino]-N-propylquinazoline-8-carboxamide]
Ki: 451 nM

CC(C)(O)CNC(=O)c1cccc2cnc(N[C@H]3CC[C@H](O)CC3)nc12 [Example 121, 2-[(trans-4-hydroxycyclohexyl)amino]-N-(2-hydroxy-2-methylpropyl)quinazoline-8-carboxamide]
Ki: 169 nM

O[C@H]1CC[C@H](Nc2ncc3ccc(OCCN4CCOCC4)cc3n2)CC1 [Example 154, trans-4-{[7-(2-morpholin-4-ylethoxy)quinazolin-2-yl]amino}cyclohexanol]
Ki: 403 nM

O=C(NC1(c2cccnc2)CC1)c1cccc2cnc(N[C@H]3CC[C@H](O)CC3)nc12 [Example 464, 2-[(trans-4-hydroxycyclohexyl)amino]-N-(1-pyridin-3-ylcyclopropyl)quinazoline-8-carboxamide]
Ki: 685 nM

CCNC(=O)c1cccc2cnc(N[C@H]3CC[C@H](O)CC3)nc12 [Example 118, N-ethyl-2-[(trans-4-hydroxycyclohexyl)amino]quinazoline-8-carboxamide]
Ki: 222 nM

CC(C)(C)OCCOc1cccc2cnc(N[C@H]3CC[C@H](O)CC3)nc12 [Example 258, trans-4-{[8-(2-tert-butoxyethoxy)quinazolin-2-yl]amino}cyclohexanol]
inhibition at 1 µM: 30%

CNC(=O)COc1c(C)ccc2cnc(N[C@H]3CC[C@H](O)CC3)nc12 [Example 206, 2-({2-[(trans-4-hydroxycyclohexyl)amino]-7-methylquinazolin-8-yl}oxy) N-methylacetamide]
Ki: 495 nM

O[C@H]1CC[C@H](Nc2ncc3cccc(OC4CCC4)c3n2)CC1 [Example 242, trans-4-{[8-(cyclobutyloxy)quinazolin-2-yl]amino}cyclohexanol]
Ki: 112 nM

O=C(NC(CO)c1ccccc1F)c1ccc2cnc(N[C@H]3CC[C@H](O)CC3)nc2c1 (stereo partly drawn) [Example 98, N-[1-(2-fluorophenyl)-2-hydroxyethyl]-2-[(trans-4-hydroxycyclohexyl)amino]quinazoline-7-carboxamide]
Ki: 33 nM

CC(C)Oc1ccc(CNc2cc3cc(-c4cn[nH]c4)ccc3cn2)cc1CO [Example 234, [2-isopropoxy-5-({[6-(1H-pyrazol-4-yl)isoquinolin-3-yl]amino}methyl)phenyl]methanol]
inhibition at 10 µM: 19%

O=C(Cc1c(F)cccc1C(F)(F)F)Nc1cc2cc(-c3cn[nH]c3)ccc2cn1 [Example 33, N-[6-(1H-pyrazol-4-yl)isoquinolin-3-yl]-2-[2-(trifluoromethyl-6-fluoro)phenyl]acetamide]
Ki: 7 nM

O=C(NC1CCN(c2cccnn2)CC1)c1cccc2cnc(N[C@H]3CC[C@H](O)CC3)nc12 [Example 449, 2-[(trans-4-hydroxycyclohexyl)amino]-N-(1-pyridazin-3-ylpiperidin-4-yl)quinazoline-8-carboxamide]
Ki: 138 nM

O=C(NCC1(O)CCC1)c1ccc2cnc(N[C@H]3CC[C@H](O)CC3)nc2c1 [Example 341, N-[(1-hydroxycyclobutyl)methyl]-2-[(trans-4-hydroxycyclohexyl)amino]quinazoline-7-carboxamide]
Ki: 836 nM

CC[C@@H](NC(=O)c1ccc2cnc(N[C@H]3CC[C@H](O)CC3)nc2c1)c1ccccc1 [Example 93, 2-[(trans-4-hydroxycyclohexyl)amino]-N-[(1R)-1-phenylpropyl]quinazoline-7-carboxamide]
Ki: 31 nM

C[C@@H](CO)NC(=O)c1ccc2cnc(NC3CCCC3)nc2c1 [Example 418, 2-(cyclopentylamino)-N-[(1S)-2-hydroxy-1-methylethyl]quinazoline-7-carboxamide]
Ki: 1720 nM

CN1CCCCC1COc1cccc2cnc(N[C@H]3CC[C@H](O)CC3)nc12 (stereo partly drawn) [Example 252, trans-4-({8-[(1-methylpiperidin-2-yl)methoxy]quinazolin-2-yl}amino)cyclohexanol]
inhibition at 10 µM: 59%

O=C(Nc1ccccn1)c1cccc2cnc(N[C@H]3CC[C@H](O)CC3)nc12 [Example 110, 2-[(trans-4-hydroxycyclohexyl)amino]-N-pyridin-2-ylquinazoline-8-carboxamide]
Ki: 86 nM

CC(C)C[C@@H](CO)NC(=O)c1ccc2cnc(N[C@H]3CC[C@H](O)CC3)nc2c1 [Example 375, 2-[(trans-4-hydroxycyclohexyl)amino]-N-[(1S)-1-(hydroxymethyl)-3-methylbutyl]quinazoiine-7-carboxamide]
Ki: 107 nM

O=C(NCc1ccc(F)cc1)c1ccc2cnc(N[C@H]3CC[C@H](O)CC3)nc2c1 [Example 88, N-(4-fluorobenzyl)-2-[(trans-4-hydroxycyclohexyl)amino]quinazoline-7-carboxamide]
Ki: 114 nM

CC(C)(N)CNC(=O)c1cccc2cnc(N[C@H]3CC[C@H](O)CC3)nc12 [Example 128, N-(2-amino-2-methylpropyl)-2-[(trans-4-hydroxycyclohexyl)amino]quinazoline-8-carboxamide]
Ki: 3500 nM

CS(=O)(=O)Nc1ccc(CNc2cc3cc(-c4cn[nH]c4)ccc3cn2)cc1 [Example 237, N-[4-({[6-(1H-pyrazol-4-yl)isoquinolin-3-yl]amino}methyl)phenyl]methanesulfon-amide]
inhibition at 10 µM: 41%

O=C(NCC1(O)CCC1)c1cccc2cnc(N[C@H]3CC[C@H](O)CC3)nc12 [Example 129, N-[(1-hydroxycyclobutyl)methyl]-2-[(trans-4-hydroxycyclohexyl)amino]quinazoline-8-carboxamide]
Ki: 130 nM
